Source: patent US6875761B2 (Eisai Co., Ltd., priority 1997, dated 2005)
pKi: −log10 of the molar value. Structures can show the parent of a compound that is named as a salt.

Legend:
α1 adrenalin receptor = test: Binding test on [3H] prazosin, cerebral cortex receptor fraction; parameters: species or system SD rats; details: rat cerebral cortex receptor fraction, about 0.2 nM [3H] prazosin, room temperature 60 min; read-out: α 1
Experimental: As radioisotope-labeled compounds, use was made of the following reagents (mfd. by NEN). • 3) [^3H] […] Prazosin.
(§1) Use was made of SD rats aged 6 to 8 weeks.
(§2) The rats were sacrificed by dcapitation to extirpate the cerebra.
(§3) Each mixture was homogenized by using a Teflon glass homogenizer and centrifuged as 1,000× g for 10 min. The supernatant thus obtained was further centrifuged at 20,000× g for 20 min. […] After centrifuging at 20,000× g for 20 min, the obtained precipitate was further suspended and centrifuged twice each in the same manner. […] This receptor fraction was stored at −80° C. until using.
IC50 was calculated by the probit method, while Ki was determined in accordance with the following formula: Ki=IC50(1+c/Kd) wherein c represents the concentration of the radioisotope-labeled compound, and Kd represents the dissociation constant of the radioisotope-labeled compound with respect to the receptor determined by Scatchard's analysis. (Binding test on [^3H] prazosin)
To the receptor fraction of the cerebral cortex were added a test compound and about 0.2 nM of [^3H] prazosin and the resultant mixture was incubated at room temperature for 60 min. Next, it was filtered through a glass filter with the use of a cell harvester. After washing the glass filter with 50 mM Tris hydrochloride (pH 7.4), the radioactivity of the receptor was measured with a liquid scintillation counter. The binding detected in the presence of 10 μM of phentolamine was referred to as the nonspecific binding.

serotonin 2 receptor = biological target: T1, serotonin 2 receptor (Rattus norvegicus, UniProt P14842); test: Binding test on [3H] ketanserin, cerebral cortex receptor fraction; parameters: species or system SD rats; details: 0.3 nM [3H] ketanserin, 37° C. 15 min, read-out: 5HT2
T1 construct: To the receptor fraction of the cerebral cortex were added a test compound and 0.3 nM of [^3H] ketanserin; from tissue; host or cells: rat cerebral cortex membrane fraction
Experimental: Methysergide maleate was dissolved in distilled water before using.
as §1, §2, §3
To the receptor fraction of the cerebral cortex were added a test compound and 0.3 nM of [^3H] ketanserin and the resultant mixture was incubated at 37° C. for 15 min. Next, it was filtered through a glass filter with the use of a cell harvester. After washing the glass filter with 50 mM Tris hydrochloride (pH 7.4), the radioactivity of the receptor was measured with a liquid scintillation counter. The binding detected in the presence of 1 μM of methysergide was referred to as the nonspecific binding.
IC50 was calculated by the probit method, while Ki was determined in accordance with the following formula: Ki=IC50(1+c/Kd) wherein c represents the concentration of the radioisotope-labeled compound, and Kd represents the dissociation constant of the radioisotope-labeled compound with respect to the receptor determined by Scatchard's analysis.

serotonin 1A receptor = biological target: T2, serotonin 1A receptor (Rattus norvegicus, UniProt P19327); test: Binding test on [3H] 8-hydroxy-dipropylaminotetralin, hippocampus receptor fraction; parameters: species or system SD rats; details: rat hippocampus receptor fraction, 0.5 nM [3H] 8-OH-DPAT, room temperature 30 min; read-out: 5HT1
T2 construct: To the receptor fraction of the hippocampus were added a test compound and 0.5 nM of [^3H]; 8-hydroxy-dipropylaminotetralin; from tissue; host or cells: rat hippocampus membrane fraction
T2 sequence (P19327 1-422): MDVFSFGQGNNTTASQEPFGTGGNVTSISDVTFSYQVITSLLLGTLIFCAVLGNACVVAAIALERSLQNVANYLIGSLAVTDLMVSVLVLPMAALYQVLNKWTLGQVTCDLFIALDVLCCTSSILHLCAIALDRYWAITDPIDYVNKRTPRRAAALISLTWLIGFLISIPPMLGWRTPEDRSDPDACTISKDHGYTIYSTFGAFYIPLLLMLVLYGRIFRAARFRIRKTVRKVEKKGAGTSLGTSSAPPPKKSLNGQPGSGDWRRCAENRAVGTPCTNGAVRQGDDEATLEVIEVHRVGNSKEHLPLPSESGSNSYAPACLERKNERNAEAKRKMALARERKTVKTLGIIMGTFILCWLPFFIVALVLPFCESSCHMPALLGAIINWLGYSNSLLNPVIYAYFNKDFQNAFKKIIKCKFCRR

T1 sequence (P14842 whole entry): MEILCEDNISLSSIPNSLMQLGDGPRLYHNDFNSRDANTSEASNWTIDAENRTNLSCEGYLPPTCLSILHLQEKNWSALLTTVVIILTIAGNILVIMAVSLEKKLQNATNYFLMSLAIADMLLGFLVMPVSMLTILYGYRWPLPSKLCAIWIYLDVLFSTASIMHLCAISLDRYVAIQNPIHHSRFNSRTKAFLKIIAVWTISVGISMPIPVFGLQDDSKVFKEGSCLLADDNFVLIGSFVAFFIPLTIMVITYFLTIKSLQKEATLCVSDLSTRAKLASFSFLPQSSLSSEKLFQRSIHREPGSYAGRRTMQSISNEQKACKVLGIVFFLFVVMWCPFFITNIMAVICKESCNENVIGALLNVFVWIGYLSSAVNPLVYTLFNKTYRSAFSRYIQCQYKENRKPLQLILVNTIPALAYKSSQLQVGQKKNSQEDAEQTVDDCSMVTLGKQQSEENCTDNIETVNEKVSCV

| Compound | pKi (α1 adrenalin receptor) | pKi (serotonin 2 receptor) | pKi (serotonin 1A receptor) | melting point |
| --- | --- | --- | --- | --- |
| CCN1CCN(c2nc(-c3ccc(OCCF)cc3)cc3ccccc23)CC1 [Example 45, 1-(4-Ethylpiperazin-1-Yl)-3-[4-(2-Fluoroethoxy)Phenyl]Isoquinoline Dihydrochloride] | 5.91 | 8.96 | 7.35 | – |
| CCN1CCN(c2nc(-c3cnc(N4CCOCC4)s3)cc3ccccc23)CC1 [Example 173, 1-(1-ethylpiperazin-4-yl)-3-[2-(4-morpholinyl)-5-thiazolyl]isoquinoline dihydrochloride] | 6.55 | 8.32 | 8.41 | – |
| CCN1CCN(c2nc(/C=C/c3ccccc3S(C)(=O)=O)cc3ccccc23)CC1.Cl [Example 202, 3-[(E)-2-(2-Methylsulfonylphenyl)Ethenyl]-1-(4-Ethylpiperazin-1-Yl)Isoquinoline Hydrochloride] | < 5.70 | 8.65 | 7.84 | 146 to 149 °C |
| CCN1CCN(c2nc(-c3ccc(C(C)O)cc3)cc3sccc23)CC1 (stereo not drawn) [Example 281, 4-(4-ethylpiperazin-1-yl)-6-[4-(1-hydroxyethyl)phenyl]thieno[3,2-c]pyridine oxalate] | 6.46 | 7.77 | 7.82 | – |
| CCN1CCN(c2nc(-c3ccc(OCCCO)cc3)cc3ccccc23)CC1.Cl.Cl [Example 331, 1-(4-ethylpiperazin-1-yl)-3-[4-(3-hydroxypropoxy)phenyl]isoquinoline dihydrochloride] | 6.14 | 8.23 | 7.63 | 112 to 113 °C (dec.) |
| CCCCS(=O)(=O)Nc1ccc(-c2cc3ccccc3c(N3CCN(CC)CC3)n2)cc1 [Example 73, 3-(4-Butylsulfonylaminophenyl)-1-(4-Ethylpiperazin-1-Yl)Isoquinoline Hydrochloride] | 6.16 | 8.48 | 7.89 | – |
| CCN1CCN(c2nc(-c3ccc(OCCOC)cc3)cc3ccccc23)CC1 [Example 42, 1-(4-ethylpiperazin-1-yl)-3-[4-(2-methoxyethoxy)phenyl]isoquinoline dihydrochloride] | 5.61 | 8.36 | 7.48 | – |
| CCN1CCN(c2nc(C#Cc3ccccc3OCCO)cc3ccccc23)CC1 [Example 187, 1-(1-Ethylpiperazin-4-Yl)-3-[2-(2-Hydroxyethoxylphenyl]Ethynylisoquinoline Oxalate] | 6.01 | 8.60 | 8.01 | – |
| CCN1CCN(c2nc(-c3ccc(OCCC#N)cc3)cc3ccccc23)CC1 [Example 52, 3-[4-(2-Cyanoethoxy)Phenyl]-1-(4-Ethylpiperazin-1-Yl)Isoquinoline Hydrochloride] | 6.26 | 9.22 | 7.63 | – |
| CCCC(O)c1ccc(-c2cc3ccccc3c(N3CCN(CC)CC3)n2)cc1 (stereo not drawn) [Example 21, 1-(4-ethylpiperazin-1-yl)-3-[4-(1-hydroxybutyl)phenyl]isoquinoline oxalate] | 6.20 | 8.37 | 7.76 | – |
| CCCC(=O)Nc1ccc(-c2cc3ccccc3c(N3CCN(CC)CC3)n2)cc1 [Example 70, 3-(4-Propylcarbonylaminophenyl]-1-(4-Ethylpiperazin-1-Yl)Isoquinoline Hydrochloride] | 5.90 | 8.26 | 7.63 | – |
| CCN1CCN(c2nc(-c3ccc(OCCO)cc3)cc3ccsc23)CC1 [Example 259, 7-(4-ethylpiperazin-1-yl)-5-(4-hydroxyethoxyphenyl)thieno[2,3-c]pyridine Hydrochloride] | 6.39 | 7.72 | 8.03 | – |
| CCN1CCN(c2nc(-c3ccc(CCCO)c(C#N)c3)cc3ccccc23)CC1 [Example 32, 3-[3-cyano-4-(3-hydroxypropyl)phenyl]-1-(4-ethylpiperazin-1-yl)isoquinoline hydrochloride] | 6.30 | 8.11 | 8.00 | – |
| CCCNC(=O)c1ccc(-c2cc3ccccc3c(N3CCN(CC)CC3)n2)cc1 [Example 63, 1-(4-Ethylpiperazin-1-Yl)-3-(4-N-Propylaminocarbonylphenyl)Isoquinoline Hydrochloride] | 6.60 | 9.08 | 7.74 | – |
| CCN1CCN(c2nc(-c3ccc(OC)cc3OC)cc3ccccc23)CC1 [Example 12, 3-(2,4-dimethoxyphenyl)-1-(4-ethylpiperazin-1-yl)isoquinolin Dihydrochloride] | 5.39 | 8.27 | 6.85 | – |
| CCN1CCN(c2nc(C#Cc3ccccn3)cc3ccccc23)CC1 [Example 179, 1-(1-Ethylpiperazin-4-Yl)-3-(2-Pyridyl)Ethynylisoquinoline Oxalate] | 6.68 | 9.40 | 8.28 | – |
| CCN1CCN(c2nc(-c3ccc(CCCCO)cc3)cc3ccccc23)CC1 [Example 23, 3-[4-(4-hydroxybutyl)phenyl]-1-(4-ethylpiperazin-1-yl)isoquinoline hydrochloride] | 5.90 | 8.19 | 7.77 | – |
| CCN1CCN(c2nc(-c3ccc(CCCO)cc3)cc3ccccc23)CC1 [Example 20, 1-(4-ethylpiperazin-1-yl)-3-[4-(3-hydroxypropyl)phenyl]isoquinoline hydrochloride] | 6.06 | 8.59 | 7.84 | – |
| CCN1CCN(c2nc(CCCCOCc3ccccc3)cc3ccccc23)CC1 [Example 1, 3-(4-benzyloxybutyl)-1-(4-ethylpiperazin-1-yl)isoquinoline Dihydrochloride] | < 5.70 | 7.44 | 7.67 | – |
| CCN1CCN(c2nc(-c3ccc4c(c3)CC(CO)C4)cc3ccccc23)CC1 (stereo not drawn) [Example 393, 1-(4-Ethylpiperazin-1-yl)-3-(2-Hydroxymethylindan-5-yl)Isoquinoline Dihydrochloride] | 6.62 | 8.74 | 7.88 | – |
| CCN1CCN(c2nc(-c3ccc(CCC(C)O)cc3)cc3ccccc23)CC1 (stereo not drawn) [Example 22, 1-(4-ethylpiperazin-1-yl)-3-[4-(3-hydroxybutyl)phenyl]isoquinoline oxalate] | 5.51 | 8.82 | 8.03 | – |
| CCN1CCN(c2nc(-c3ccc(CCCO)c(OC)c3)cc3ccccc23)CC1 [Example 33, 1-(4-ethylpiperazin-1-yl)-3-[4-(3-hydroxypropyl)-3-methoxyphenyl]isoquinoline hydrochloride] | 6.12 | 7.96 | 8.10 | – |
| CCN1CCN(c2nc(-c3ccc(CCC(C)(C)O)c(F)c3)cc3ccccc23)CC1 [Example 416, 1-(4-ethylpiperazin-1-yl)-3-[4-(3-hydroxy-3-methylbutyl)-3-fluorophenyl]isoquinoline] | 6.76 | 9.15 | 7.51 | – |
| CCN1CCN(c2nc(-c3ccc(OCCO)cc3)cc3ccccc23)CC1 [Example 36, 1-(4-ethylpiperazin-1-yl)-3-[4-(2-hydroxyethoxy)phenyl]isoquinoline dihydrochloride] | 5.91 | 8.41 | 7.73 | – |
| CCN1CCN(c2nc(-c3ccc(OCCOC)nc3)cc3ccccc23)CC1 [Example 126, 1-(1-Ethylpiperazin-4-yl)-3-[2-(2-Methoxyethoxy)Pyridin-5-yl]Isoquinoline] | 6.42 | 8.24 | 7.58 | – |
| CCN1CCN(c2nc(-c3ccc(O)cc3)cc3ccccc23)CC1 [Example 7, 1-(4-ethylpiperazin-1-yl)-3-(4-hydroxyphenyl)isoquinoline] | 6.28 | 7.09 | 7.55 | 204 to 206 °C |
